Source: patent US4014875A, “Process of making di or tribromomethanesulfonamides” (The Dow Chemical Company, priority 1975, dated 1977)
Converted amounts (≈) assume the structure as drawn.

Legend:
Format in all cases: cell-based
[1] = system: P. aeruginosa; test: agar dilution test, growth inhibition of P. aeruginosa; details: Pseudomonas aeruginosa; Pa = P. aeruginosa; 100% growth inhibition (kills); read-out: Minimum Growth Inhibitory Concentration
Protocol: (§1) In representative operations, compounds of the present invention were tested for their activity as antimicrobials using conventional agar dilution tests. The following Table presents results, expressed as concentration of toxicant in parts per million to achieve 100% growth inhibition (kills) of the indicated organisms.

[2] = system: S. aureus; test: agar dilution test, growth inhibition of S. aureus; details: Staphylococcus aureus; Sa = S. aureus; 100% growth inhibition (kills); read-out: Minimum Growth Inhibitory Concentration
Protocol: as §1

[3] = system: C. albicans; test: agar dilution test, growth inhibition of C. albicans; details: Candida albicans; Ca = C. albicans; 100% growth inhibition (kills); read-out: Minimum Growth Inhibitory Concentration
Protocol: as §1

[4] = system: T, mentagrophytes; test: agar dilution test, growth inhibition of T, mentagrophytes; details: Tm = T, 100% growth inhibition (kills), read-out: Minimum Growth Inhibitory Concentration
Protocol: as §1

[5] = system: B. subtilis; test: agar dilution test, growth inhibition of B. subtilis; set-up: key to Minimum Growth Inhibitory Concentration: *: 50% control at 500 ppm; details: Bs = B. subtilis, 100% growth inhibition (kills); for MIC: Bacillus subtilis, read-out: Minimum Growth Inhibitory Concentration
Protocol: as §1

[6] = system: A. terreus; test: agar dilution test, growth inhibition of A. terreus; details: Aspergillus terreus; At = A. terreus; 100% growth inhibition (kills); read-out: Minimum Growth Inhibitory Concentration
Protocol: as §1

[7] = system: C. pelliculosa; test: agar dilution test, growth inhibition of C. pelliculosa; details: Hansenula anomala; Cp = C. pelliculosa; 100% growth inhibition (kills); read-out: Minimum Growth Inhibitory Concentration
Protocol: as §1

[8] = system: P. pullulans; test: agar dilution test, growth inhibition of P. pullulans; details: Pp = P. pullulans; 100% growth inhibition (kills); read-out: Minimum Growth Inhibitory Concentration
Protocol: as §1

[9] = system: M. phlei; test: agar dilution test, growth inhibition of M. phlei; details: Mycolicibacterium phlei; Mp = M. phlei; 100% growth inhibition (kills); read-out: Minimum Growth Inhibitory Concentration
Protocol: as §1

[10] = system: R. nigricans; test: agar dilution test, growth inhibition of R. nigricans; details: Rhizopus stolonifer; Rn = R. nigricans; 100% growth inhibition (kills); read-out: Minimum Growth Inhibitory Concentration
Protocol: as §1

[11] = system: Ceratocystis ips; test: agar dilution test, growth inhibition of Ceratocystis ips; details: Ci = Ceratocystis ips; 100% growth inhibition (kills); read-out: Minimum Growth Inhibitory Concentration
Protocol: as §1

[12] = system: Cephaloascus fragans; test: agar dilution test, growth inhibition of Cephaloascus fragans; details: Cf = Cephaloascus fragans; 100% growth inhibition (kills); read-out: Minimum Growth Inhibitory Concentration
Protocol: as §1

[13] = system: Trichoderm Sp. Madison P-42; test: agar dilution test, growth inhibition of Trichoderm Sp. Madison P-42; details: Ts = Trichoderm Sp. Madison P-42; 100% growth inhibition (kills); read-out: Minimum Growth Inhibitory Concentration
Protocol: as §1

[14] = system: S. typhosa; test: agar dilution test, growth inhibition of S. typhosa; details: St = S. typhosa; 100% growth inhibition (kills); read-out: Minimum Growth Inhibitory Concentration
Protocol: as §1

## CC1CN(S(=O)(=O)C(Br)(Br)Br)CC(C)O1 (stereo not shown) [1 (a), 2,6-Dimethyl-4-((tribromomethyl)sulfonyl)morpholine]
[1]
  MIC: 100 µg/mL (≈ 233 µM)
[2]
  MIC: 500 µg/mL (≈ 1160 µM)
[3]
  MIC: 100 µg/mL (≈ 233 µM)
[4]
  MIC: 100 µg/mL (≈ 233 µM)
[5]
  MIC: 100 µg/mL (≈ 233 µM)
[6]
  MIC: 10 µg/mL (≈ 23.3 µM)
[7]
  MIC: 100 µg/mL (≈ 233 µM)
[8]
  MIC: 100 µg/mL (≈ 233 µM)
[9]
  MIC: 100 µg/mL (≈ 233 µM)
[10]
  MIC: 100 µg/mL (≈ 233 µM)
[11]
  MIC: 100 µg/mL (≈ 233 µM)
[12]
  MIC: 100 µg/mL (≈ 233 µM)
[13]
  MIC: 100 µg/mL (≈ 233 µM)

## CC1CN(S(=O)(=O)C(Br)Br)CC(C)O1 (stereo not shown) [1 (b), 2,6-Dimethyl-4-((dibromomethyl)sulfonyl)morpholine]
[1]
  MIC: > 500 µg/mL
[2]
  MIC: > 500 µg/mL
[3]
  MIC: 500 µg/mL (≈ 1420 µM)
[4]
  MIC: 500 µg/mL (≈ 1420 µM)
[5]
  Minimum Growth Inhibitory Concentration: *
[6]
  MIC: 500 µg/mL (≈ 1420 µM)
[7]
  MIC: 500 µg/mL (≈ 1420 µM)
[8]
  MIC: 500 µg/mL (≈ 1420 µM)
[14]
  MIC: > 500 µg/mL
[9]
  MIC: > 500 µg/mL
[10]
  MIC: 500 µg/mL (≈ 1420 µM)
[11]
  MIC: > 500 µg/mL
[12]
  MIC: 500 µg/mL (≈ 1420 µM)
[13]
  MIC: > 500 µg/mL

## O=S(=O)(N1CCOCC1)C(Br)(Br)Br [2 (b)]
[1]
  MIC: 100 µg/mL (≈ 249 µM)
[2]
  MIC: 500 µg/mL (≈ 1240 µM)
[3]
  MIC: 100 µg/mL (≈ 249 µM)
[4]
  MIC: 100 µg/mL (≈ 249 µM)
[5]
  MIC: 100 µg/mL (≈ 249 µM)
[6]
  MIC: 100 µg/mL (≈ 249 µM)
[7]
  MIC: 100 µg/mL (≈ 249 µM)
[8]
  MIC: 100 µg/mL (≈ 249 µM)
[9]
  MIC: 100 µg/mL (≈ 249 µM)
[10]
  MIC: 100 µg/mL (≈ 249 µM)
[11]
  MIC: 100 µg/mL (≈ 249 µM)
[12]
  MIC: 100 µg/mL (≈ 249 µM)
[13]
  MIC: 100 µg/mL (≈ 249 µM)
